Source: patent publication US11026944B2, “Compositions and methods for treating insomnia” (Eisai R&D Management Co., Ltd., priority 2014, dated 2021)
Where two headings read alike, the source gives them in different places.

Tests used:
[1] = Single daily dose PK in human subjects (summary statements); format: in vivo; conditions: plasma, oral; for Cmax: read-out: mean maximum plasma concentration (Cmax); for half-life: read-out: mean t1/2 (converted); for Tmax: read-out: mean time to maximum plasma concentration (tmax)
subjects with insomnia = experiment: 201 Study: Karolinska Sleepiness Scale (next-day residual sleepiness); format: in vivo, human
Experimental: All subjects returned to the clinic on Day-1 for Baseline Period procedures. They remained in the clinic until Day 3. Morning assessments on Day 1 provided the Baseline values for the KSS, the Digit Symbol Substitution Test (DSST), and the Reaction Time Index (RTI). Assessments at 6 hours after waketime provided the Baseline values for the Waking Function Battery (WFB), and the Profile of Mood States-Brief (POMS-B). Subjects were then randomized to receive 1 of 6 doses of compound A or placebo for the next 15 days. Study drugs were tablets containing compound A-matched placebo or compound A of 1 mg, 2.5 mg, 5 mg, or 10 mg and to be ingested 30 minutes before the median habitual bedtime calculated from their Sleep Diary responses during the Screening Period. An 8-hour PSG, starting at the same bedtime as used for the screening and Baseline PSG nights, was recorded on the first 2 treatment nights (Days 1 and 2). The Sleep Diary continued to be completed each day in the clinic, and assessments of insomnia severity (ISI), next-day residual effects (KSS, DSST, and RTI) were conducted while subjects were in the clinic. On specified study days, plasma concentrations of compound A were assessed while subjects were in the clinic in the morning after awakening and at trough just before dosing.
The KSS was used to measure next-day residual effects at prespecified timepoints. In this test, subjects rate their sleepiness using the KSS, a 9-point verbally anchored scale. Categories and scores range from“extremely alert” (score=1), “alert” (3), “neither alert nor sleepy” (5), “sleepy-but no difficulty remaining awake” (7), to “extremely sleepy-fighting sleep” (9). The key outcome parameter for the KSS was the score from 1 to 9.
Each dose was assessed for next-day residual sleepiness using the KSS. A mean difference of change from baseline in KSS at 1 hour after waketime on Day 2 and Day 3 of less than 4 units was incorporated into the utility function. A dose of compound A was considered to have an acceptable KSS at Day 15 and Day 16 if the mean difference of change from baseline in KSS at 1 hour after waketime on Day 15 and Day 16 at this dose relative to placebo was less than 4 units. Operationally, acceptable KSS for Day 15 and Day 16 was defined as the […] boundary of a 90% confidence interval (CI) being less than 4 units (of the mean difference of change from baseline in KSS at 1 hour after waketime at this dose relative to placebo).
In Table 6, “Baseline” was defined as the time-matched value on Day 1. “LS Means Diff” refers to the differences between LS Means of Placebo and each compound A dose, “95% CI” means to 95% CI of LS Means Diff. “p-value” was analyzed using analysis of covariance (ANCOVA) with baseline as a covanate.

healthy subjects = experiment: 001 Study Part A: sleepiness measures KSS, DSST, PVT; format: in vivo, human
Experimental: For Part A, 64 healthy subjects were enrolled into cohorts sequentially in a gradual dose escalation manner, to receive either compound A or placebo, and stratified by gender. Each cohort comprised six compound A- and two placebo-treated subjects. All study drugs were administered as single doses using one or more compound A-capsules or compound A-matched placebo capsules due to the test dose. After screening, subjects underwent baseline procedures and randomization on Day-2. Subjects were dosed on Day 1 in the morning after an overnight fast, 1 hour after lights-on. PK blood samples were collected at prespecified timepoints, and PD assessments were performed. Subjects were administered assessments on Day 1 predose and every 2 hours from 2 to 12 hours postdose, and each morning on Days 2 to 6.
These assessments included the Karolinska Sleepiness Scale (KSS), Digit Symbol Substitution Test (DSST), and Psychomotor Vigilance Test (PVT) in order to assess daytime sleepiness, level of alertness, and ability to concentrate. Waketime Questionnaires were administered after PD assessments each morning on Days 1 to Day 6. Time and duration of naps was recorded on Days 1 and 2. Safety was monitored throughout the study. […]

[2] = 1 hour post waketime, 1 mg nightly
[3] = 1 hour post waketime, 2.5 mg nightly
[4] = 1 hour post waketime, 5 mg nightly
[5] = 1 hour post waketime, 10 mg nightly
[6] = 1 hour post waketime, 15 mg nightly
[7] = 1 hour post waketime, 25 mg nightly

Which results are given for `Cc1ncc(OC[C@@]2(c3cccc(F)c3)C[C@H]2C(=O)Nc2ccc(F)cn2)c(C)n1` [Compound A, (1R,2 S)-2-(((2,4-dimethylpyrimidin-5-yl)oxy)methyl)-2-(3-fluorophenyl)-N-(5-fluoropyridin-2-yl) cyclopropanecarboxamide]?
AUC(0-t) ([1]; 2.5 mg, single 2.5 mg daily dose, read-out: mean AUC(0-24)): 0.057 to 0.06 µg·h/mL; AUC(0-t) ([1]; 2.5 mg, single 2.5 mg daily dose, read-out: mean AUC(0-t)): 0.08 to 0.095 µg·h/mL; AUC(0-t) ([1]; 5 mg, single 5 mg daily dose, read-out: mean AUC(0-24)): 0.095 to 0.11 µg·h/mL; AUC(0-t) ([1]; 5 mg, single 5 mg daily dose, read-out: mean AUC(0-t)): ~0.128 µg·h/mL; AUC(0-t) ([1]; 10 mg, single 10 mg daily dose, read-out: mean AUC(0-24)): 0.16 to 0.19 µg·h/mL; AUC(0-t) ([1]; 10 mg, single 10 mg daily dose, read-out: mean AUC(0-t)): 0.28 to 0.51 µg·h/mL; AUC(0-inf) ([1]; single 2.5 mg daily dose): 0.08 to 0.103 µg·h/mL; Cmax ([1]; single 2.5 mg daily dose): 0.01 to 0.018 µg/mL; half-life ([1]; single 2.5 mg daily dose): 30 to 37 h; Tmax ([1]; single 2.5 mg daily dose): 1 to 2 h; AUC(0-inf) ([1]; single 5 mg daily dose): ~0.15 µg·h/mL; Cmax ([1]; single 5 mg daily dose): 0.019 to 0.023 µg/mL; half-life ([1]; single 5 mg daily dose): ~31 h; Tmax ([1]; single 5 mg daily dose): 1 to 2 h; AUC(0-inf) ([1]; single 10 mg daily dose): 0.31 to 0.53 µg·h/mL; Cmax ([1]; single 10 mg daily dose): 0.03 to 0.058 µg/mL; half-life ([1]; single 10 mg daily dose): 56 to 60 h; Tmax ([1]; single 10 mg daily dose): 1 to 3.25 h; KSS vs placebo, significance (subjects with insomnia; 15 min post waketime timepoints): No statistically significant differences; Change from Baseline in KSS, Mean of Days 2 & 3: LS Means Diff vs placebo (subjects with insomnia; [2]): 0.02; Change from Baseline in KSS, Mean of Days 2 & 3: Mean (subjects with insomnia; [2]): −0.2; Change from Baseline in KSS, Mean of Days 15 & 16: LS Means Diff vs placebo (subjects with insomnia; [2]): 0.51; Change from Baseline in KSS, Mean of Days 15 & 16: Mean (subjects with insomnia; [2]): 0.3; Change from Baseline in KSS, Mean of Days 2 & 3: LS Means Diff vs placebo (subjects with insomnia; [3]): −0.06; Change from Baseline in KSS, Mean of Days 2 & 3: Mean (subjects with insomnia; [3]): −0.3; Change from Baseline in KSS, Mean of Days 15 & 16: LS Means Diff vs placebo (subjects with insomnia; [3]): 0.13; Change from Baseline in KSS, Mean of Days 15 & 16: Mean (subjects with insomnia; [3]): −0.1; Change from Baseline in KSS, Mean of Days 2 & 3: LS Means Diff vs placebo (subjects with insomnia; [4]): 0.20; Change from Baseline in KSS, Mean of Days 2 & 3: Mean (subjects with insomnia; [4]): −0.1; Change from Baseline in KSS, Mean of Days 15 & 16: LS Means Diff vs placebo (subjects with insomnia; [4]): 0.43; Change from Baseline in KSS, Mean of Days 15 & 16: Mean (subjects with insomnia; [4]): 0.1; Change from Baseline in KSS, Mean of Days 2 & 3: LS Means Diff vs placebo (subjects with insomnia; [5]): 0.16; Change from Baseline in KSS, Mean of Days 2 & 3: Mean (subjects with insomnia; [5]): 0.0; Change from Baseline in KSS, Mean of Days 15 & 16: LS Means Diff vs placebo (subjects with insomnia; [5]): 0.01; Change from Baseline in KSS, Mean of Days 15 & 16: Mean (subjects with insomnia; [5]): −0.1; Change from Baseline in KSS, Mean of Days 2 & 3: LS Means Diff vs placebo (subjects with insomnia; [6]): 0.32; Change from Baseline in KSS, Mean of Days 2 & 3: Mean (subjects with insomnia; [6]): 0.1; Change from Baseline in KSS, Mean of Days 15 & 16: LS Means Diff vs placebo (subjects with insomnia; [6]): 0.38; Change from Baseline in KSS, Mean of Days 15 & 16: Mean (subjects with insomnia; [6]): 0.1; Change from Baseline in KSS, Mean of Days 2 & 3: LS Means Diff vs placebo (subjects with insomnia; [7]): 0.47; Change from Baseline in KSS, Mean of Days 2 & 3: Mean (subjects with insomnia; [7]): 0.4; Change from Baseline in KSS, Mean of Days 15 & 16: LS Means Diff vs placebo (subjects with insomnia; [7]): 0.68; Change from Baseline in KSS, Mean of Days 15 & 16: Mean (subjects with insomnia; [7]): 0.6; KSS LS mean differences vs placebo, significance (subjects with insomnia; 1 hour post waketime, Mean of Days 2/3, 1 mg to 15 mg): not statistically significant; KSS vs placebo, significance (subjects with insomnia; 2 hour post waketime, mean of Days 2/3, 15 mg and 25 mg): statistical significance; KSS vs placebo, significance (subjects with insomnia; 2 hour post waketime, mean of Days 15/16, 25 mg): statistically significant; time of maximal pharmacodynamic response on KSS, DSST, PVT (healthy subjects; postdose, coinciding with Cmax): ~2 h; measures of sleepiness (KSS, DSST, PVT) (healthy subjects; single morning doses 1-200 mg): general dose-response relationship
